{"source": "paper PMC5146859", "about": "“Phase 1/2 study of pacritinib, a next generation JAK2/FLT3 inhibitor, in myelofibrosis or other myeloid malignancies” (Journal of Hematology & Oncology, 2016)", "test_system": "patients with advanced myeloid malignancies", "test": "Phase 1 safety: adverse events (NCIC-CTCAE version 3.0)", "type": "in vivo, human", "description": "At screening/baseline, patients underwent a medical history, physical examination, vital sign assessment, ECOG PS assessment, electrocardiogram, and assessment of hematologic parameters and blood chemistry. Hematology/blood chemistry, physical examinations, and vital sign assessments were performed throughout treatment. Toxicity was assessed using the National Cancer Institute Common Terminology Criteria for Adverse Events (NCIC-CTCAE), version 3.0, with relationship to treatment assigned by the investigator and were recorded from the first dose of pacritinib until 30 days after the last dose. Bone marrow biopsy and/or aspirate samples were drawn at baseline, on day 1 of cycle 4 and cycle 10, as clinically indicated, and at the termination visit. Disease response and progression were determined using the relevant International Working Group (IWG) criteria.\nThe efficacy-evaluable population included those patients with a baseline and corresponding follow-up value. The safety population included all enrolled patients who received ≥1 dose of pacritinib."}
{"smiles": "C1=C/COCc2cc(ccc2OCCN2CCCC2)Nc2nccc(n2)-c2cccc(c2)COC/1", "note": "[pacritinib, 11-(2-pyrrolidin-1-yl-ethoxy)-14,19-dioxa-5,7,26-triaza-tetracyclo[19.3.1.1(2,6). 1(8,12)]heptacosa-1(25),2(26),3,5,8,10,12(27),16,21,23-decaene]", "values": [{"measurement": "Grade 4 gastrointestinal AEs", "setting": "phase 1", "result": "No grade 4 gastrointestinal AEs occurred"}, {"measurement": "Relation of fatal AEs to treatment", "setting": "phase 1", "result": "None of the AEs were considered to be related to treatment"}, {"measurement": "Treatment-emergent AE: Abdominal distension", "setting": "phase 1, 100 mg, n = 3", "result": "0 n (%)"}, {"measurement": "Treatment-emergent AE: Abdominal pain", "setting": "phase 1, 100 mg, n = 3", "result": "1 (33.3) n (%)"}, {"measurement": "Treatment-emergent AE: Anemia", "setting": "phase 1, 100 mg, n = 3", "result": "0 n (%)"}, {"measurement": "Treatment-emergent AE: Any AE", "setting": "phase 1, 100 mg, n = 3", "result": "3 (100.0) n (%)"}, {"measurement": "Treatment-emergent AE: Asthenia", "setting": "phase 1, 100 mg, n = 3", "result": "2 (66.7) n (%)"}, {"measurement": "Treatment-emergent AE: Back pain", "setting": "phase 1, 100 mg, n = 3", "result": "1 (33.3) n (%)"}, {"measurement": "Treatment-emergent AE: Cardiac murmur", "setting": "phase 1, 100 mg, n = 3", "result": "1 (33.3) n (%)"}, {"measurement": "Treatment-emergent AE: Chills", "setting": "phase 1, 100 mg, n = 3", "result": "0 n (%)"}, {"measurement": "Treatment-emergent AE: Constipation", "setting": "phase 1, 100 mg, n = 3", "result": "2 (66.7) n (%)"}, {"measurement": "Treatment-emergent AE: Cough", "setting": "phase 1, 100 mg, n = 3", "result": "1 (33.3) n (%)"}, {"measurement": "Treatment-emergent AE: Decreased appetite", "setting": "phase 1, 100 mg, n = 3", "result": "2 (66.7) n (%)"}, {"measurement": "Treatment-emergent AE: Dehydration", "setting": "phase 1, 100 mg, n = 3", "result": "0 n (%)"}, {"measurement": "Treatment-emergent AE: Diarrhea", "setting": "phase 1, 100 mg, n = 3", "result": "2 (66.7) n (%)"}, {"measurement": "Treatment-emergent AE: Dizziness", "setting": "phase 1, 100 mg, n = 3", "result": "0 n (%)"}, {"measurement": "Treatment-emergent AE: Dyspnea", "setting": "phase 1, 100 mg, n = 3", "result": "2 (66.7) n (%)"}, {"measurement": "Treatment-emergent AE: Edema peripheral", "setting": "phase 1, 100 mg, n = 3", "result": "2 (66.7) n (%)"}, {"measurement": "Treatment-emergent AE: Epistaxis", "setting": "phase 1, 100 mg, n = 3", "result": "2 (66.7) n (%)"}, {"measurement": "Treatment-emergent AE: Fatigue", "setting": "phase 1, 100 mg, n = 3", "result": "1 (33.3) n (%)"}, {"measurement": "Treatment-emergent AE: Hyperbilirubinemia", "setting": "phase 1, 100 mg, n = 3", "result": "1 (33.3) n (%)"}, {"measurement": "Treatment-emergent AE: Hyperuricemia", "setting": "phase 1, 100 mg, n = 3", "result": "1 (33.3) n (%)"}, {"measurement": "Treatment-emergent AE: Insomnia", "setting": "phase 1, 100 mg, n = 3", "result": "1 (33.3) n (%)"}, {"measurement": "Treatment-emergent AE: Nausea", "setting": "phase 1, 100 mg, n = 3", "result": "0 n (%)"}, {"measurement": "Treatment-emergent AE: Neutropenia", "setting": "phase 1, 100 mg, n = 3", "result": "1 (33.3) n (%)"}, {"measurement": "Treatment-emergent AE: Night sweats", "setting": "phase 1, 100 mg, n = 3", "result": "1 (33.3) n (%)"}, {"measurement": "Treatment-emergent AE: Pain in extremity", "setting": "phase 1, 100 mg, n = 3", "result": "3 (100.0) n (%)"}, {"measurement": "Treatment-emergent AE: Petechiae", "setting": "phase 1, 100 mg, n = 3", "result": "2 (66.7) n (%)"}, {"measurement": "Treatment-emergent AE: Pyrexia", "setting": "phase 1, 100 mg, n = 3", "result": "1 (33.3) n (%)"}, {"measurement": "Treatment-emergent AE: Skin lesion", "setting": "phase 1, 100 mg, n = 3", "result": "0 n (%)"}, {"measurement": "Treatment-emergent AE: Thrombocytopenia", "setting": "phase 1, 100 mg, n = 3", "result": "1 (33.3) n (%)"}, {"measurement": "Treatment-emergent AE: Upper respiratory tract infection", "setting": "phase 1, 100 mg, n = 3", "result": "0 n (%)"}, {"measurement": "Treatment-emergent AE: Vomiting", "setting": "phase 1, 100 mg, n = 3", "result": "0 n (%)"}, {"measurement": "Treatment-emergent AE: Abdominal distension", "setting": "phase 1, 150 mg, n = 6", "result": "0 n (%)"}, {"measurement": "Treatment-emergent AE: Abdominal pain", "setting": "phase 1, 150 mg, n = 6", "result": "1 (16.7) n (%)"}, {"measurement": "Treatment-emergent AE: Anemia", "setting": "phase 1, 150 mg, n = 6", "result": "1 (16.7) n (%)"}, {"measurement": "Treatment-emergent AE: Any AE", "setting": "phase 1, 150 mg, n = 6", "result": "6 (100.0) n (%)"}, {"measurement": "Treatment-emergent AE: Asthenia", "setting": "phase 1, 150 mg, n = 6", "result": "2 (33.3) n (%)"}, {"measurement": "Treatment-emergent AE: Back pain", "setting": "phase 1, 150 mg, n = 6", "result": "2 (33.3) n (%)"}, {"measurement": "Treatment-emergent AE: Cardiac murmur", "setting": "phase 1, 150 mg, n = 6", "result": "0 n (%)"}, {"measurement": "Treatment-emergent AE: Chills", "setting": "phase 1, 150 mg, n = 6", "result": "2 (33.3) n (%)"}, {"measurement": "Treatment-emergent AE: Constipation", "setting": "phase 1, 150 mg, n = 6", "result": "2 (33.3) n (%)"}, {"measurement": "Treatment-emergent AE: Cough", "setting": "phase 1, 150 mg, n = 6", "result": "1 (16.7) n (%)"}, {"measurement": "Treatment-emergent AE: Decreased appetite", "setting": "phase 1, 150 mg, n = 6", "result": "2 (33.3) n (%)"}, {"measurement": "Treatment-emergent AE: Dehydration", "setting": "phase 1, 150 mg, n = 6", "result": "1 (16.7) n (%)"}, {"measurement": "Treatment-emergent AE: Diarrhea", "setting": "phase 1, 150 mg, n = 6", "result": "2 (33.3) n (%)"}, {"measurement": "Treatment-emergent AE: Dizziness", "setting": "phase 1, 150 mg, n = 6", "result": "0 n (%)"}, {"measurement": "Treatment-emergent AE: Dyspnea", "setting": "phase 1, 150 mg, n = 6", "result": "1 (16.7) n (%)"}, {"measurement": "Treatment-emergent AE: Edema peripheral", "setting": "phase 1, 150 mg, n = 6", "result": "2 (33.3) n (%)"}, {"measurement": "Treatment-emergent AE: Epistaxis", "setting": "phase 1, 150 mg, n = 6", "result": "1 (16.7) n (%)"}, {"measurement": "Treatment-emergent AE: Fatigue", "setting": "phase 1, 150 mg, n = 6", "result": "1 (16.7) n (%)"}, {"measurement": "Treatment-emergent AE: Hyperbilirubinemia", "setting": "phase 1, 150 mg, n = 6", "result": "1 (16.7) n (%)"}, {"measurement": "Treatment-emergent AE: Hyperuricemia", "setting": "phase 1, 150 mg, n = 6", "result": "1 (16.7) n (%)"}, {"measurement": "Treatment-emergent AE: Insomnia", "setting": "phase 1, 150 mg, n = 6", "result": "1 (16.7) n (%)"}, {"measurement": "Treatment-emergent AE: Nausea", "setting": "phase 1, 150 mg, n = 6", "result": "1 (16.7) n (%)"}, {"measurement": "Treatment-emergent AE: Neutropenia", "setting": "phase 1, 150 mg, n = 6", "result": "2 (33.3) n (%)"}, {"measurement": "Treatment-emergent AE: Night sweats", "setting": "phase 1, 150 mg, n = 6", "result": "0 n (%)"}, {"measurement": "Treatment-emergent AE: Pain in extremity", "setting": "phase 1, 150 mg, n = 6", "result": "0 n (%)"}, {"measurement": "Treatment-emergent AE: Petechiae", "setting": "phase 1, 150 mg, n = 6", "result": "2 (33.3) n (%)"}, {"measurement": "Treatment-emergent AE: Pyrexia", "setting": "phase 1, 150 mg, n = 6", "result": "2 (33.3) n (%)"}, {"measurement": "Treatment-emergent AE: Skin lesion", "setting": "phase 1, 150 mg, n = 6", "result": "4 (66.7) n (%)"}, {"measurement": "Treatment-emergent AE: Thrombocytopenia", "setting": "phase 1, 150 mg, n = 6", "result": "2 (33.3) n (%)"}, {"measurement": "Treatment-emergent AE: Upper respiratory tract infection", "setting": "phase 1, 150 mg, n = 6", "result": "2 (33.3) n (%)"}, {"measurement": "Treatment-emergent AE: Vomiting", "setting": "phase 1, 150 mg, n = 6", "result": "1 (16.7) n (%)"}, {"measurement": "Treatment-emergent AE: Abdominal distension", "setting": "phase 1, 200 mg, n = 9", "result": "2 (22.2) n (%)"}, {"measurement": "Treatment-emergent AE: Abdominal pain", "setting": "phase 1, 200 mg, n = 9", "result": "1 (11.1) n (%)"}, {"measurement": "Treatment-emergent AE: Anemia", "setting": "phase 1, 200 mg, n = 9", "result": "1 (11.1) n (%)"}, {"measurement": "Treatment-emergent AE: Any AE", "setting": "phase 1, 200 mg, n = 9", "result": "9 (100.0) n (%)"}, {"measurement": "Treatment-emergent AE: Asthenia", "setting": "phase 1, 200 mg, n = 9", "result": "1 (11.1) n (%)"}, {"measurement": "Treatment-emergent AE: Back pain", "setting": "phase 1, 200 mg, n = 9", "result": "0 n (%)"}, {"measurement": "Treatment-emergent AE: Cardiac murmur", "setting": "phase 1, 200 mg, n = 9", "result": "1 (11.1) n (%)"}, {"measurement": "Treatment-emergent AE: Chills", "setting": "phase 1, 200 mg, n = 9", "result": "0 n (%)"}, {"measurement": "Treatment-emergent AE: Constipation", "setting": "phase 1, 200 mg, n = 9", "result": "2 (22.2) n (%)"}, {"measurement": "Treatment-emergent AE: Cough", "setting": "phase 1, 200 mg, n = 9", "result": "1 (11.1) n (%)"}, {"measurement": "Treatment-emergent AE: Decreased appetite", "setting": "phase 1, 200 mg, n = 9", "result": "0 n (%)"}]}
